In patent US8158088B2, “Extractant compositions for co-extracting cesium and strontium, a method of separating cesium and strontium from an aqueous feed, and calixarene compounds” (Battelle Energy Alliance, LLC, priority 2008, dated 2012):

Assays:
Type in all cases: physicochemical
[1] = Solvent stability: strontium distribution ratios as a function of contact time with 1.5 M HNO3
Description: (§1) The stability of the mixed extractant solvents prepared using dialkyloxycalix[4]arenebenzocrown-6 compounds (MC-8, MC-8B, MC-10, MC-10B, MC-12, or MC-12B) relative to BOBCalixC6 in the FPEX I process solvent was determined. Samples were prepared using each of the dialkyloxycalix[4]arenebenzocrown-6 compounds and contacted with 1.5 M HNO3. The samples included 0.007 M of the respective dialkyloxycalix[4]arenebenzo-crown-6 compound (MC-8, MC-8B, MC-10, MC-10B, MC-12, or MC-12B), 0.075 M DtBuCH18C6, 0.75 M Cs-7SB modifier, and 0.003 M TOA in ISOPAR® L. The stability of the dialkyloxycalix[4]arene-benzocrown-6 based solvents was evaluated by measuring the cesium and strontium distribution ratios as a function of contact time. These cesium and strontium distribution ratios for the mixed extractant solvents are presented in Table 9 and Table 10, respectively, along with the cesium and strontium distribution ratios for the FPEX I process solvent. The symbol “-” is used in Tables 9 and 10 to indicate no data was collected.
(§2) This degradation is likely due to chemical attack or nitration of the BOBCalixC6 in the FPEX I process solvent. […] However, it is difficult to compare the relative extents of degradation. In order to compare the different extractants, the distribution ratio data presented in Tables 9 and 10 were normalized to the values obtained at t=0 days contact. The normalized cesium and strontium distribution ratios for the FPEX I process solvent and the mixed extractant solvents as a function of contact time are presented in FIGS. 2 and 3, respectively.

[2] = Solvent stability: cesium distribution ratios as a function of contact time with 1.5 M HNO3
Description: as §1, §2

[3] = Solubility of the calixarene in the extractant solvent
[4] = Cesium distribution ratio (DCs), equilibrium batch contact of mixed extractant solvent with nitric acid feed
Source text: The distribution of cesium and strontium between the first organic phase (the mixed extractant solvent including the dialkyloxycalix[4]arenebenzocrown-6 compound) and the first aqueous phase (aqueous feed) may be determined by conventional techniques. The distribution ratio for strontium (“DSr”) may be calculated as the ratio of organic phase activity to the aqueous phase activity at equilibrium. High values for the DSr indicate that the strontium is present predominantly in the organic phase while low values for the DSr indicate that the strontium is present predominantly in the aqueous phase. Similarly, the distribution ratio for cesium (“DCs”) may be calculated as the ratio of organic phase activity to the aqueous phase activity at equilibrium. High values for the DCs indicate that the cesium is present predominantly in the organic phase while low values for the DCs indicate that the cesium is present predominantly in the aqueous phase.
Distribution ratios (DM=[M]org/[M]aq) were measured by equilibrium batch contacts between the organic and aqueous phases at an organic-to-aqueous phase ratio (O/A) of unity (O/A=1). All distribution ratio measurements were conducted in a temperature controlled water bath at 25±1° C. The aqueous phase was of the appropriate HNO3 concentration, to which trace quantities (typically, less than 10^−7 M each) of the major radionuclides of interest (^137Cs, ^85Sr, ^154Eu, or ^241Am) were added. The organic and aqueous phases were contacted by vortex mixing for 1 minute. All batch contact experiments were performed at ambient temperature (from approximately 20° C. to approximately 25° C.) unless otherwise noted. Following extraction, the samples were centrifuged for 1 minute and the organic and aqueous phases separated by pipet or centrifugation. The distribution ratios (DSr, or DCs) were calculated as the ratio of the appropriate specific activities in the organic and aqueous phases as determined by γ-ray counting (gamma spectroscopy). The counting time was selected to provide less than approximately 1% statistical uncertainty.
(MC-8, MC-8B, MC-10, MC-10B, MC-12, or MC-12B), 0.075 M DtBuCH18C6, 0.75 M Cs-7SB modifier, and 0.003 M TOA in ISOPAR® L were evaluated for their respective abilities to simultaneously extract cesium and strontium from the aqueous feed simulant composition described in Table 2. The cesium and strontium distribution ratios of the mixed extraction solvents were compared to those of the FPEX I process solvent. The cesium extraction performance and strontium extraction performance of each of the mixed extractant solvents was determined using the batch contact flowsheet presented in FIG. 1, where “E1,” “E2,” and “E3” refer to three forward extraction acts: a first extraction act, a second extraction act, and a third extraction act, respectively, and “St1” and “St2” refer to two backward extraction acts: a first strip act and a second strip act, respectively. […] The aqueous feed 2 and the mixed extractant solvent 4 were combined in a vessel 6 to conduct the extraction. Two phases were formed during the extraction: the first organic phase and the first aqueous phase, with the cesium and strontium substantially distributed in the first organic phase.
The cesium and strontium distribution ratios for the mixed extractant solvents 4 were calculated for the first organic phase and are reported in Tables 3 and 4, respectively, as E1, along with the cesium and strontium distribution ratios for the FPEX I process solvent. The cesium and strontium were stripped from the first (and subsequent) organic phase to recover these radionuclides. For the strips or backward extractions, the first (and subsequent) organic phase was contacted with dilute acidic solution 8, which was 0.01 M HNO3. […]

[5] = contact time 0 days with 1.5 M HNO3, 0.007 M calixarene, 0.075 M DtBuCH18C6, 0.75 M Cs-7SB, 0.003 M TOA in ISOPAR L
[6] = contact time 34 days with 1.5 M HNO3
[7] = contact time 70 days with 1.5 M HNO3
[8] = contact time 278 days with 1.5 M HNO3

Strontium distribution ratio as a function of contact time [1, 5]: 10.5
Strontium distribution ratio as a function of contact time [1, 6]: 7.7
Strontium distribution ratio as a function of contact time [1, 7]: 9.3
Strontium distribution ratio as a function of contact time [1, 8]: 8.0
Cesium distribution ratio as a function of contact time [2, 5]: 4.2
Cesium distribution ratio as a function of contact time [2, 6]: 3.2
Cesium distribution ratio as a function of contact time [2, 7]: 3.6
Cesium distribution ratio as a function of contact time [2, 8]: 2.8
precipitation on storage ([3]; 0.05 M MC-8 solvent, room temperature, several months): no observable precipitation
SMILES: CCCCCCCCOc1c2cccc1Cc1cccc3c1OCCOCCOc1ccccc1OCCOCCOc1c(cccc1Cc1cccc(c1OCCCCCCCC)C3)C2 [MC-8, 1,3-alternate-25,27-di(octyloxy)calix[4]arenebenzocrown-6]
solubility in the mixed extractant solvent ([3]; MC-8 varied from 0.01 M to 0.05 M in 0.075 M DtBuCH18C6, 0.75 M Cs-7SB, 0.003 M TOA in ISOPAR L): soluble at these increased concentrations
DCs ([4]; 0.010 M MC-8, contact E1, 1.5 M HNO3, 0.075 M DtBuCH18C6, 0.75 M Cs-7SB, 0.003 M TOA in ISOPAR L): 7.2
DCs ([4]; 0.015 M MC-8, contact E1, 1.5 M HNO3): 13.3
DCs ([4]; 0.020 M MC-8, contact E1, 1.5 M HNO3): 21.5
DCs ([4]; 0.025 M MC-8, contact E1, 1.5 M HNO3): 29.4
cesium distribution ratio ([4]; 0.05 M MC-8 (as printed in text), 1.5 M HNO3): 29
DCs ([4]; 1.0 M HNO3, 20 °C, contact E1, 0.025 M MC-8, 0.075 M DtBuCH18C6, 0.75 M Cs-7SB, 0.003 M TOA in ISOPAR L): 31.0
DCs ([4]; 1.5 M HNO3, 20 °C, contact E1, 0.025 M MC-8): 35.6
DCs ([4]; 2.0 M HNO3, 20 °C, contact E1, 0.025 M MC-8): 39.9
DCs ([4]; 3.0 M HNO3, 20 °C, contact E1, 0.025 M MC-8): 3rd phase
DCs ([4]; 4.0 M HNO3, 20 °C, contact E1, 0.025 M MC-8): 3rd phase
DCs ([4]; 15 °C, contact E1, 1.0 M HNO3 feed, 0.025 M MC-8, 0.075 M DtBuCH18C6, 0.75 M Cs-7SB, 0.003 M TOA in ISOPAR L): 44.5
DCs ([4]; 20 °C, contact E1, 1.0 M HNO3 feed, 0.025 M MC-8): 24.5
DCs ([4]; 25 °C, contact E1, 1.0 M HNO3 feed, 0.025 M MC-8): 15.7
DCs ([4]; 30 °C, contact E1, 1.0 M HNO3 feed, 0.025 M MC-8): 9.9
DCs ([4]; 35 °C, contact E1, 1.0 M HNO3 feed, 0.025 M MC-8): 6.2
DCs ([4]; contact E1, batch contact flowsheet, simulated feed 1.0 M HNO3, 0.025 M MC-8): 34.7
DCs ([4]; contact E2, simulated feed 1.0 M HNO3, 0.025 M MC-8): 29.0
DCs ([4]; contact E3, simulated feed 1.0 M HNO3, 0.025 M MC-8): 21.9
DCs ([4]; contact St1 (strip), 0.025 M MC-8): 0.63
DCs ([4]; contact St2 (strip), 0.025 M MC-8): 0.25
Cesium distribution ratio, contact E1 ([4]; first forward extraction, 1.5 M HNO3 feed simulant, 25 °C, 0.007 M calixarene, 0.075 M DtBuCH18C6, 0.75 M Cs-7SB, 0.003 M TOA in ISOPAR L): 4.2
Cesium distribution ratio, contact St1 ([4]; first strip with 0.01 M HNO3, 35 °C, 0.007 M calixarene solvent): 0.6
Cesium distribution ratio, contact E2 ([4]; second forward extraction, 1.5 M HNO3 feed, 25 °C, 0.007 M calixarene solvent): 1.9
Cesium distribution ratio, contact St2 ([4]; second strip with 0.01 M HNO3, 35 °C, 0.007 M calixarene solvent): 0.2
Cesium distribution ratio, contact E3 ([4]; third forward extraction, 1.5 M HNO3 feed, 25 °C, 0.007 M calixarene solvent): 1.5
